From PMC4749642, “Evaluation of anticonvulsant and antinociceptive properties of new N-Mannich bases derived from pyrrolidine-2,5-dione and 3-methylpyrrolidine-2,5-dione” (Naunyn-Schmiedeberg's Archives of Pharmacology, 2015)
Several values for one entry are separate records, joined by “and”; a condition that tells them apart may be missing. Equal entries are not always repeated. Marks after values point to notes of the source that are not given here.

Columns and labels:
[1] = tested on: L-type calcium channel (dihydropyridine site); assay: L-type Ca channel (dihydropyridine site) [3H]nitrendipine binding assay; settings: rat cerebral cortex
V. harveyi BB7XM [2] = assay: Vibrio harveyi mutagenicity assay, BB7XM strain; settings: 40 ng/ml; for Mutagenicity BB7XM M.I. (mutagenic index): positive assay when M.I. ≥ 2
Procedure: (§1) Two V. harveyi strains were used in the experiments: wild-type BB7 and genetically modified BB7XM (the UV-hypersensitive strain bearing plasmid pAB91273), which were described previously by Czyż et al. ([2000]).
(§2) Mutagenicity assay was performed as described previously (Czyż et al. [2000]). All experiments were carried out in triplicate and the results were expressed as mutagenic index (M.I. = the number of revertant colonies induced in the tested sample/the number of spontaneous revertants in the negative control) (Gulluce et al. [2010]).

V. harveyi BB7 [3] = assay: Vibrio harveyi antimutagenicity assay (vs NQNO), BB7 strain; assay type: cell-based; settings: for inhibition of NQNO-induced mutagenicity in BB7 strain (in words): NQNO 40 ng/ml; for Antimutagenicity BB7 number of revertants Mean ± SD: test compound plus NQNO 40 ng/ml (NQNO line: mutagen only); for Antimutagenicity BB7 Inhib. (%) of mutagenicity: test compound plus NQNO 40 ng/ml, 25–40 % moderate, 40 % or more strong
Procedure: as §1
(§3) Antimutagenicity assay was performed according to previously described procedures (Czyż et al. [2002]; Pękala et al. [2013]). […] This was calculated as follows: Inhibition (%) = 100 − [(R1/R2) × 100], where R1 is the number of revertants per plate induced by test compound plus mutagen and R2 is the number of revertants in the plate containing only the mutagen (Słoczyńska et al. [2010]). No antimutagenic effect was considered when the inhibition was less than 25 %; a moderate effect for an inhibition value between 25 and 40 % and a strong antimutagenicity were recorded for inhibition higher than 40 % (Gulluce et al. [2010]).

mice [4] = assay: Spontaneous locomotor activity (photoresistor actometers); assay type: in vivo, mouse
Procedure: (§4) Male CD-1 mice weighing 18–24 g were used in the in vivo experiment. The animals were kept at room temperature of 20 ± 2 °C under standard conditions (12:12 h light-dark cycle, standard pellet diet, tap water). All the experiments were performed between 8 a.m. and 3 p.m. For the experiments, the animals were selected in a random way and sacrificed by cervical dislocation immediately after the assay. The experimental protocol was approved by the Local Ethics Commission for Animal Experiments of the Jagiellonian University in Cracow, and all experiences were conducted in accordance with the 1996 NIH Guide for the Care and Use of Laboratory Animals.
(§5) The tested compounds 12 (N-[{4-(3,4-dichlorophenyl)-piperazin-1-yl}-methyl]-3-methylpyrrolidine-2,5-dione), 13 (N-[{4-(3-trifluoromethylphenyl)-piperazin-1-yl}-methyl]-3-methylpyrrolidine-2,5-dione), 15 (N-[{4-(3-methylphenyl)-piperazin-1-yl}-methyl]-3-methylpyrrolidine-2,5-dione), 23 (N-[{4-(3,4-dichlorophenyl)-piperazin-1-yl}-methyl]-pyrrolidine-2,5-dione), and 24 (N-[{4-(3-trifluoromethylphenyl)-piperazin-1-yl}-methyl]-pyrrolidine-2,5-dione) were synthesized at the Department of Medicinal Chemistry, Jagiellonian University Medical College in Cracow (Scheme 1). The synthesis of the investigated compounds was described earlier (Rybka et al. [2014]). The investigated compounds were suspended in a 0.5 % aqueous solution of methylcellulose (Loba Chemie, Germany). Lacosamide (Vimpat, UCB Pharma, Belgium), pilocarpine (Sigma-Aldrich, Germany), scopolamine butylbromide (Sigma-Aldrich, Germany), and formaldehyde (POCh, Poland) were dissolved in distilled water. Agents were administered intraperitoneally (i.p.) at a volume of 0.1 ml/10 g. Control animals were administered an equivalent volume of vehicle (0.5 % aqueous solution of methylcellulose) via the same route as the test compounds.
Locomotor activity was measured with photoresistor actometers (Ugo Basile, Italy) connected to a counter for the recording of light-beam interruptions. Mice were individually placed in plastic cages for 30 min habituation period, and then the number of light-beam crossings was counted for a 30-min session. The cages were cleaned up with 70 % ethanol after each mouse.

V. harveyi BB7 [5] = assay: Vibrio harveyi mutagenicity assay, BB7 strain; settings: 40 ng/ml; for Mutagenicity BB7 M.I. (mutagenic index): positive assay when M.I. ≥ 2
Procedure: as §1, §2

mice [6] = assay: Pilocarpine-induced seizure test; assay type: in vivo, mouse
Procedure: as §4, §5
The experimental procedure was originally described by Turski et al. ([1987]). Seizures were induced in mice by i.p. injection of pilocarpine at a dose of 400 mg/kg. Forty-five minutes before pilocarpine, animals were also pretreated with scopolamine butylbromide (1 mg/kg, i.p.) to reduce peripheral autonomic side effects and masticatory and stereotyped movements (Kowalczyk et al. [2014]). Direct observation was performed for 60 min to monitor the latency time to the onset of the limbic seizures, characterized by a subsequent development of behavioral symptoms, such as tremor, head bobbing, and myoclonic movements of the forelimbs progressing to recurrent myoclonic convulsions with rearing, salivation, falling, and status epilepticus (Łuszczki et al. [2008]; Turski [2000]).

mice [7] = assay: Electroconvulsive threshold test (MEST test); assay type: in vivo, mouse
mice [8] = assay: Formalin hind paw test; assay type: in vivo, mouse; settings: dose 30 mg/kg i.p.; for reduction of the duration of the licking response, first (neurogenic) phase: 0–5 min after 5 % formalin; for antinociceptive effect (reduction of licking response), second (late) phase: 15–30 min after 5 % formalin
Procedure: as §4, §5
Antinociceptive activity in the formalin hind paw test was examined according to Laughlin et al. ([2002]). Twenty microliters of a 5 % formalin solution was injected intraplantarly (i.pl.) into the right hind paw of the mouse. […] Time (in seconds) spent on licking or biting the injected hind paw in selected intervals, 0–5 and 15–30 min, was measured in each experimental group and was an indicator of nociceptive behavior. In mice, intraplantarly injection of diluted formalin produces a biphasic nocifensive behavioral response (i.e., licking or biting the injected hind paw). The acute nociceptive phase lasts for the first 5 min, whereas the second inflammatory phase occurs between 15 and 30 min after formalin injection.

mice [9] = assay: Hot plate test; assay type: in vivo, mouse; settings: dose 30 mg/kg i.p.; for latency time to pain reaction: mean ± SEM, vehicle 27.51 ± 1.36 s, cutoff 60 s
Procedure: as §4, §5
In the hot plate test, the mice were i.p. pretreated either with the test compound or vehicle before placing the animal on the hot plate apparatus (Panlab/Harvard Apparatus, Spain). This apparatus has an electrically heated surface and is supplied with a temperature controller that maintains the temperature at 55–56 °C. The time to the first reaction (licking or jumping) of mice to a nociceptive stimulus was recorded. The cutoff time was established to 60 s to avoid paw tissue damage (Sałat et al. [2014]).

V. harveyi BB7XM [10] = assay: Vibrio harveyi antimutagenicity assay (vs NQNO), BB7XM strain; assay type: cell-based; settings: for Antimutagenicity BB7XM number of revertants Mean ± SD: test compound plus NQNO 40 ng/ml (NQNO line: mutagen only); for Antimutagenicity BB7XM Inhib. (%) of mutagenicity: test compound plus NQNO 40 ng/ml, 25–40 % moderate, 40 % or more strong
Procedure: as §1, §3

[11] = dose 30 mg/kg i.p., 30-min session
[12] = dose 100 mg/kg i.p., 4 h before pilocarpine
[13] = dose 100 mg/kg i.p., 4 h before pilocarpine 400 mg/kg
[14] = dose 30 mg/kg i.p., 4 h before the test, value with 95 % confidence interval

Compound	Mutagenicity BB7XM number of revertants Mean ± SD (V. harveyi BB7XM [2])	Mutagenicity BB7XM M.I. (mutagenic index) (V. harveyi BB7XM [2])	inhibition of NQNO-induced mutagenicity in BB7 strain (in words) (V. harveyi BB7 [3])	Antimutagenicity BB7 number of revertants Mean ± SD (V. harveyi BB7 [3])	Antimutagenicity BB7 Inhib. (%) of mutagenicity (V. harveyi BB7 [3])	influence on locomotor activity (number of crossings, in words) (mice [4]; [11])	Mutagenicity BB7 number of revertants Mean ± SD (V. harveyi BB7 [5])	Mutagenicity BB7 M.I. (mutagenic index) (V. harveyi BB7 [5])	Anticonvulsant effect (%) (prolongation of latency time to seizures vs vehicle) (mice [6]; [12])	Latency to status epilepticus (s) ± SEM (mice [6]; [13]) [s]	CS50 (mA) (CI) (mice [7]; [14])	reduction of the duration of the licking response, first (neurogenic) phase (mice [8]) [%]	antinociceptive effect (reduction of licking response), second (late) phase (mice [8]) [%]	prolongation of latency time to pain reaction vs vehicle (mice [9]) [%]	latency time to pain reaction (mice [9]) [s]	Antimutagenicity BB7XM number of revertants Mean ± SD (V. harveyi BB7XM [10])	Antimutagenicity BB7XM Inhib. (%) of mutagenicity (V. harveyi BB7XM [10])	other results
O=C1NC(=O)C(c2ccccc2)(c2ccccc2)N1 [Phenytoin, reference compound]	–	–	–	–	–	–	–	–	–	–	–	–	–	–	–	–	–	% inhibition of control specific binding ([1]; 10 μM): 6.6%; % inhibition of control specific binding ([1]; 100 μM): 57.8%
O=C1CCC(=O)N1CN1CCN(c2cccc(C(F)(F)F)c2)CC1 [Compound 24, N-[{4-(3-trifluoromethylphenyl)-piperazin-1-yl}-methyl]-pyrrolidine-2,5-dione]	19 ± 1	1.6	weakly suppressed	31 ± 5	(18) %	significantly reduced the number of crossings	25 ± 4	1.6	1.2	346.7 ± 25.92	14.01 (9.05–21.70)*** mA	62	94	72	47.23 ± 3.77	29 ± 3	(0) %	increase of electroconvulsive threshold (ECT) vs vehicle (mice [7]; dose 10 mg/kg i.p., 4 h before the test): 68%; CS50 (mA) (CI) (mice [7]; dose 10 mg/kg i.p., 4 h before the test, value with 95 % confidence interval): 11.11 (8.12–15.20)*** mA; increase of electroconvulsive threshold (ECT) vs vehicle (mice [7]; dose 30 mg/kg i.p., 4 h before the test): 114%
COC[C@@H](NC(C)=O)C(=O)NCc1ccccc1 [Lacosamide, reference compound]	–	–	–	–	–	significant decrease of locomotor activity	–	–	–	–	–	69	90	–	–	–	–	Anticonvulsant effect (%) (prolongation of latency time to seizures vs vehicle) (mice [6]; dose 30 mg/kg i.p., 30 min before pilocarpine): 12.8%; Latency to status epilepticus (s) ± SEM (mice [6]; dose 30 mg/kg i.p., 30 min before pilocarpine 400 mg/kg): 382.1 ± 22.86 s; Latency to status epilepticus (s) ± SEM (mice [6]; dose 40 mg/kg i.p., 30 min before pilocarpine 400 mg/kg): 507.7 ± 52.11 s; Anticonvulsant effect (%) (prolongation of latency time to seizures vs vehicle) (mice [6]; dose 40 mg/kg i.p., 30 min before pilocarpine, 40 mg/kg): 50% and 49.8%; CS50 (mA) (CI) (mice [7]; dose 10 mg/kg i.p., 30 min before the test, 10 mg/kg): >25 mA; CS50 (mA) (CI) (mice [7]; dose 10 mg/kg i.p., 30 min before the test, listed as lacosamide, 10 mg/kg): above 25 mA; antinociceptive activity in the hot plate test (in words) (mice [9]): significantly prolonged the latency time
N-[{4-(3-methylphenyl)-piperazin-1-yl}-methyl]-3-methylpyrrolidine-2,5-dione [Compound 15]	–	–	–	–	–	–	–	–	18.5	406.0 ± 59.77	8.11 (7.12–9.24)*** mA	52	66	71	47.12 ± 6.14	–	–	influence on locomotor activity (number of crossings, in words) (mice [4]; mouse, in vivo, ip, 30 mg/kg): significantly reduced the number of crossings
CC1CC(=O)N(CN2CCN(c3cccc(C(F)(F)F)c3)CC2)C1=O (stereo not shown) [Compound 13, N-[{4-(3-trifluoromethylphenyl)-piperazin-1-yl}-methyl]-3-methylpyrrolidine-2,5-dione]	20 ± 5	1.7	moderate inhibitors	25 ± 4	(35) %	significantly reduced the number of crossings	22 ± 3	1.4	–	296.7 ± 9.63	9.37 (5.47–16.07)* mA	79	89	–	56.03 ± 1.75	20 ± 4	(16) %	–
